Experimental data as given in DBAASP.
Values after ≈ are worked out from the molar mass of the structure shown. Blank lines part the entries; values can stand above or below the compound they belong to.

Assays:
Experiment in all cases: ≥ marks a high value that may be exact or a test limit, other limits are often not marked, values filed in µg/mL are converted to µM
[1] = test system: Staphylococcus aureus ATCC 9144
[2] = test system: Escherichia coli ATCC 25922
[3] = test system: Corynebacterium glutamicum ATCC 13032
Botrytis cinerea 101 = test system: Botrytis cinerea 101
[4] = test system: Escherichia coli ATCC 51659
[5] = test system: Pseudomonas aeruginosa PAO1
[6] = test system: Acinetobacter baumannii ATCC BAA-1794
[7] = test system: Staphylococcus aureus ATCC 33592
[8] = test system: Escherichia coli K12 MG1655
[9] = test system: Staphylococcus aureus 68 HER 1049
[10] = test system: Mycobacterium tuberculosis
Candida albicans = test system: Candida albicans
Candida glabrata = test system: Candida glabrata
Streptococcus agalactiae = test system: Streptococcus agalactiae
[11] = test system: Pseudomonas aeruginosa ATCC 9027
[12] = test system: Mycobacterium tuberculosis H37Rv
[13] = test system: Staphylococcus aureus ATCC 25923
Staphylococcus aureus 1 = test system: Staphylococcus aureus 1
Pseudomonas aeruginosa = test system: Pseudomonas aeruginosa
[14] = test system: Micrococcus luteus CCM 144
[15] = test system: Staphylococcus aureus ATCC 43300
Escherichia coli B = test system: Escherichia coli B
[16] = test system: Pseudomonas aeruginosa ATCC 27853
[17] = test system: Staphylococcus epidermidis
Bacillus subtilis 168 = test system: Bacillus subtilis 168
[18] = test system: Candida albicans F7-39/IDE99
Staphylococcus aureus = test system: Staphylococcus aureus
Listeria grayi DSM 20601 = test system: Listeria grayi DSM 20601
[19] = test system: Lactiplantibacillus plantarum 965
[20] = test system: Latilactobacillus sakei NCDO 2714
[21] = test system: Candida albicans CCARM 14022
[22] = test system: Candida albicans CCARM 14020
[23] = test system: Candida albicans CCARM 14021
Candida albicans SC5314 = test system: Candida albicans SC5314
[24] = test system: Trichomonas vaginalis ATCC 30001
Trichomonas vaginalis T1 = test system: Trichomonas vaginalis T1
Vibrio alginolyticus = test system: Vibrio alginolyticus
[25] = test system: Trichomonas vaginalis ATCC 50143
[26] = test system: Vibrio vulnificus BCRC 12905
[27] = test system: Listeria monocytogenes BCRC 14845

MIC [1]: ≥ 100 µM
MIC [2]: > 100 µM
MIC [3]: ≥ 100 µM
MIC (Botrytis cinerea 101): ≥ 100 µM
Structure (SMILES): CC[C@H](C)[C@H](NC(=O)[C@H](CCCCN)NC(=O)[C@@H](NC(=O)[C@H](CCCN=C(N)N)NC(=O)[C@H](C)NC(=O)[C@H](CCC(=O)O)NC(=O)[C@H](CCC(=O)O)NC(=O)[C@@H]1CCCN1C(=O)[C@@H](N)CO)C(C)C)C(=O)N[C@@H](CC(C)C)C(=O)N[C@H](C(=O)N[C@@H](C)C(=O)N[C@H](C(=O)N1CCC[C@H]1C(=O)N[C@@H](CCC(=O)O)C(=O)N[C@@H](CCSC)C(=O)N[C@@H](CCCN=C(N)N)C(=O)N[C@@H](CCC(=O)O)C(=O)N[C@@H](CCC(=O)O)C(=O)N[C@@H](CC(=O)O)C(=O)N[C@@H](CC(C)C)C(=O)N[C@@H](CO)C(=O)N[C@@H](CCC(=O)O)C(=O)N[C@@H](CCC(=O)O)C(=O)O)[C@@H](C)CC)[C@@H](C)O [SPEEARVKILTAIPEMREEDLSEE]

MIC [4]: ≥ 80.6 µM
MIC [5]: > 80.6 µM
MIC [6]: ≥ 80.6 µM
MIC [7]: ≥ 80.6 µM
Structure (SMILES): CC(C)C[C@H](NC(=O)[C@H](CCCCN)NC(=O)[C@H](CCC(=O)O)NC(=O)[C@H](CCCCN)NC(=O)[C@@H](NC(=O)[C@H](CCCCN)NC(=O)[C@H](CCCCN)NC(=O)[C@H](Cc1ccccc1)NC(=O)[C@H](Cc1cnc[nH]1)NC(=O)[C@H](CCC(=O)O)NC(=O)[C@H](CO)NC(=O)[C@H](Cc1ccccc1)NC(=O)[C@H](Cc1c[nH]c2ccccc12)NC(=O)[C@H](CC(N)=O)NC(=O)[C@H](CCCN=C(N)N)NC(=O)[C@@H](NC(=O)[C@H](CCCCN)NC(=O)[C@@H](NC(=O)[C@H](CO)NC(=O)[C@@H](N)Cc1ccccc1)[C@@H](C)O)[C@@H](C)O)C(C)C)C(=O)N[C@@H](CCCCN)C(=O)N[C@@H](CC(=O)O)C(=O)N[C@H](C(=O)N[C@@H](Cc1ccccc1)C(=O)N[C@@H](C)C(=O)O)[C@@H](C)O [FSTKTRNWFSEHFKKVKEKLKDTFA]

MIC [8]: 2.22 µM (≈ 4 µg/mL)
MIC [9]: 4.45 µM (≈ 8 µg/mL)
Structure (SMILES): CC[C@H](C)[C@H](NC(=O)CNC(=O)[C@H](CCCCN)NC(=O)[C@H](Cc1ccccc1)NC(=O)[C@H](CC(C)C)NC(=O)[C@H](CCCCN)NC(=O)[C@H](Cc1c[nH]c2ccccc12)NC(=O)[C@@H](N)CCCCN)C(=O)N[C@@H](CCCN=C(N)N)C(=O)N[C@@H](C)C(=O)N[C@H](C(=O)N[C@@H](CC(C)C)C(=O)N[C@@H](CCCCN)C(=O)N[C@H](C(=O)N[C@@H](CC(C)C)C(=O)O)C(C)C)C(C)C [KWKLFKGIRAVLKVL]

MIC [2]: 24 µM (≈ 44.6 µg/mL)
MIC [10]: 8.6 µM (≈ 16 µg/mL)
MIC (Candida albicans): 6.25 µM (≈ 11.6 µg/mL)
MIC (Candida glabrata): ≥ 50 µM
MIC (Streptococcus agalactiae): 5 µM (≈ 9.3 µg/mL)
MIC [11]: 5 µM (≈ 9.3 µg/mL)
MIC [12]: 5.4 µM (≈ 10 µg/mL)
MIC [13]: 5 µM (≈ 9.3 µg/mL)
Structure (SMILES): CC[C@H](C)[C@H](NC(=O)[C@H](CCCCN)NC(=O)[C@H](CCCCN)NC(=O)[C@@H](NC(=O)[C@H](C)NC(=O)[C@H](CO)NC(=O)[C@@H](NC(=O)[C@H](C)NC(=O)[C@H](CO)NC(=O)[C@@H]1CCCN1C(=O)[C@@H](NC(=O)[C@H](CC(C)C)NC(=O)[C@H](CO)NC(=O)[C@H](CC(C)C)NC(=O)[C@H](CC(C)C)NC(=O)[C@H](Cc1ccccc1)NC(=O)[C@@H](N)Cc1ccccc1)[C@@H](C)CC)[C@@H](C)CC)[C@@H](C)CC)C(N)=O [FFLLSLIPSAISAIKKI]

MIC (Staphylococcus aureus 1): ≥ 35 µM
MIC (Pseudomonas aeruginosa): > 100 µM
MIC [14]: 3 µM (≈ 5.17 µg/mL)
MIC [15]: 43 µM (≈ 74.1 µg/mL)
MIC (Escherichia coli B): 12 µM (≈ 20.7 µg/mL)
MIC [16]: 47 µM (≈ 81 µg/mL)
MIC [17]: 8.8 µM (≈ 15.2 µg/mL)
MIC (Bacillus subtilis 168): 7 µM (≈ 12.1 µg/mL)
MIC [18]: 12 µM (≈ 20.7 µg/mL)
MIC (Staphylococcus aureus): 65 µM (≈ 112 µg/mL)
Structure (SMILES): CC[C@H](C)[C@H](NC(=O)CN)C(=O)N[C@@H](CCSC)C(=O)N[C@H](C(=O)N[C@@H](CO)C(=O)N[C@@H](CC(C)C)C(=O)N[C@@H](CCSC)C(=O)N[C@@H](CCCCN)C(=O)N[C@@H](CCCCN)C(=O)N[C@@H](CC(C)C)C(=O)N[C@@H](C)C(=O)N[C@@H](C)C(=O)N[C@@H](Cc1cnc[nH]1)C(=O)N[C@H](C(=O)N[C@@H](C)C(=O)N[C@@H](CCCCN)C(N)=O)[C@@H](C)CC)[C@@H](C)CC [GIMISLMKKLAAHIAK]

MIC (Listeria grayi DSM 20601): ≥ 60 µM
Structure (SMILES): CC[C@H](C)[C@H](NC(=O)[C@H](CS)NC(=O)[C@@H](NC(=O)[C@H](CCCN=C(N)N)NC(=O)[C@H](CCCCN)NC(=O)[C@H](CC(C)C)NC(=O)[C@H](Cc1ccccc1)NC(=O)[C@H](CC(N)=O)NC(=O)CNC(=O)[C@@H](N)CS)[C@@H](C)O)C(=O)N[C@@H](CS)C(=O)N[C@H](C(=O)N[C@@H](CCCCN)C(=O)N[C@@H](CCCCN)C(=O)O)C(C)C [CGNFLKRTCICVKK]

Structure (SMILES): CSCC[C@H](NC(=O)[C@H](CCC(N)=O)NC(=O)[C@H](CC(C)C)NC(=O)[C@H](CO)NC(=O)[C@@H](N)Cc1ccc(O)cc1)C(=O)O [YSLQM]
MIC [19]: 10 µM (≈ 6.41 µg/mL)
MIC [20]: 1 µM (≈ 0.641 µg/mL)

MIC [21]: 16.2 µM (≈ 32 µg/mL)
MIC [22]: 2.86 µM (≈ 5.65 µg/mL)
MIC [23]: 5.72 µM (≈ 11.3 µg/mL)
MIC (Candida albicans SC5314): 2.86 µM (≈ 5.65 µg/mL)
Structure (SMILES): CC(C)C[C@H](NC(=O)[C@@H](N)Cc1c[nH]c2ccccc12)C(=O)N[C@@H](CC(N)=O)C(=O)N[C@@H](C)C(=O)N[C@@H](CCCCN)C(=O)N[C@@H](CCCN=C(N)N)C(=O)N[C@@H](Cc1cnc[nH]1)C(=O)N[C@@H](Cc1cnc[nH]1)C(=O)NCC(=O)N[C@@H](Cc1ccc(O)cc1)C(=O)N[C@@H](CCCCN)C(=O)N[C@@H](CCCN=C(N)N)C(=O)N[C@@H](CCCCN)C(=O)N[C@@H](Cc1ccccc1)C(=O)N[C@@H](Cc1cnc[nH]1)C(N)=O [WLNAKRHHGYKRKFH]

MIC [24]: ≥ 32.6 µM
MIC (Trichomonas vaginalis T1): ≥ 65.1 µM
MIC (Vibrio alginolyticus): ≥ 32.6 µM
MIC [25]: 8.14 µM (≈ 25.3 µg/mL)
MIC [26]: ≥ 32.6 µM
MIC [27]: 8.14 µM (≈ 25.3 µg/mL)
Structure (SMILES): CSCC[C@H](NC(=O)[C@H](CCCN=C(N)N)NC(=O)CNC(=O)[C@H](CCCCN)NC(=O)[C@H](Cc1ccc(O)cc1)NC(=O)[C@H](Cc1ccc(O)cc1)NC(=O)[C@@H](NC(=O)[C@H](CCC(N)=O)NC(=O)[C@H](Cc1ccccc1)NC(=O)[C@H](CCCN=C(N)N)NC(=O)[C@H](CCCCN)NC(=O)[C@H](CC(C)C)NC(=O)[C@H](Cc1ccc(O)cc1)NC(=O)[C@@H]1CCCN1C(=O)[C@H](CCCCN)NC(=O)[C@@H](NC(=O)[C@@H](NC(=O)[C@H](Cc1ccccc1)NC(=O)[C@H](CCCCN)NC(=O)[C@H](CS)NC(=O)[C@H](CCC(=O)O)NC(C)=O)[C@@H](C)O)C(C)C)C(C)C)C(=O)N[C@@H](Cc1c[nH]c2ccccc12)C(=O)N[C@@H](CS)C(=O)N1CCC[C@H]1C(N)=O [ECKFTVKPYLKRFQVYYKGRMWCP]
